Usually EC50 stands for the concentration at which the effect is half-maximal.

The values that follow come from patent publication US8822451B2, “Modulators of ATP-binding cassette transporters” (Vertex Pharmaceuticals Incorporated, priority 2005, dated 2014).

SMILES strings stand for the structures. Bounds are passed on as bounds.

The assay concerns the target T1, […]F508-CFTR (Homo sapiens, UniProt P13569, DEL508-508).
T1 construct: expressed in transfected cells
Put plainly: Assay results of Table 3: ΔF508-CFTR modulation, membrane potential optical assay (assay format not stated). The class given is cell-based. The note with it: NIH3T3 mouse fibroblasts stably expressing […]F508-CFTR (optical assays); for Efficacy: efficacy range; for EC50: potency range. An excerpt: A. Membrane Potential Optical Methods for Assaying […]F508-CFTR Modulation Properties of Compounds
The optical membrane potential assay utilized voltage-sensitive FRET sensors described by Gonzalez and Tsien (See, Gonzalez, J. E. and R. Y. Tsien (1995) “Voltage sensing by fluorescence resonance energy transfer in single cells” Biophys J 69(4): 1272-80, and Gonzalez, J. E. and R. Y. Tsien (1997) “Improved indicators of cell membrane potential that use fluorescence resonance energy transfer” Chem Biol 4(4): 269-77) in combination with instrumentation for measuring fluorescence changes such as the Voltage/Ion Probe Reader (VIPR) (See, Gonzalez, J. E., K. Oades, et al. (1999) “Cell-based assays and instrumentation for screening ion-channel targets” Drug Discov Today 4(9): 431-439).
These voltage sensitive assays are based on the change in fluorescence resonant energy transfer (FRET) between the membrane-soluble, voltage-sensitive dye, DiSBAC2(3), and a fluorescent phospholipid, CC2-DMPE, which is attached to the outer leaflet of the plasma membrane and acts as a FRET donor. Changes in membrane potential (Vm) cause the negatively charged DiSBAC2(3) to redistribute across the plasma membrane and the amount of energy transfer from CC2-DMPE changes accordingly. The changes in fluorescence emission were monitored using VIPR™ II, which is an integrated liquid handler and fluorescent detector designed to conduct cell-based screens in 96- or 384-well microtiter plates.
To identify small molecules that correct the trafficking defect associated with ΔF508-CFTR; a single-addition HTS assay format was developed. The cells were incubated in serum-free medium for 16 hrs at 37° C. in the presence or absence (negative control) of test compound. As a positive control, cells plated in 384-well plates were incubated for 16 hrs at 27° C. to “temperature-correct” […]F508-CFTR. The cells were subsequently rinsed 3× with Krebs Ringers solution and loaded with the voltage-sensitive dyes. To activate […]F508-CFTR, 10 µM forskolin and the CFTR potentiator, genistein (20 µM), were added along with Cl^−-free medium to each well. The addition of Cl^−-free medium promoted Cl^− efflux in response to […]F508-CFTR activation and the resulting membrane depolarization was optically monitored using the FRET-based voltage-sensor dyes.
To identify potentiators of […]F508-CFTR, a double-addition HTS assay format was developed. During the first addition, a Cl^−-free medium with or without test compound was added to each well. After 22 sec, a second addition of Cl^−-free medium containing 2-10 µM forskolin was added to activate […]F508-CFTR. The extracellular Cl^− concentration following both additions was 28 mM, which promoted Cl^− efflux in response to […]F508-CFTR activation and the resulting membrane depolarization was optically monitored using the FRET-based voltage-sensor dyes.
Bath Solution #1: (in mM) NaCl 160, KCl 4.5, CaCl2 2, MgCl2 1, HEPES 10, pH 7.4 with NaOH.
Chloride-free bath solution: Chloride salts in Bath Solution #1 are substituted with gluconate salts.
CC2-DMPE: Prepared as a 10 mM stock solution in DMSO and stored at −20° C.
DiSBAC2(3): Prepared as a 10 mM stock in DMSO and stored at −20° C.
NIH3T3 mouse fibroblasts stably expressing […]F508-CFTR are used for optical measurements of membrane potential. The cells are maintained at 37° C. in 5% CO2 and 90% humidity in Dulbecco's modified Eagle's medium supplemented with 2 mM glutamine, 10% fetal bovine serum, 1× NEAA, […]-ME, 1× pen/strep, and 25 mM HEPES in 175 cm^2 culture flasks. For all optical assays, the cells were seeded at 30,000/well in 384-well matrigel-coated plates and cultured for 2 hrs at 37° C. before culturing at 27° C. for 24 hrs for the potentiator assay. For the correction assays, the cells are cultured at 27° C. or 37° C. with and without compounds for 16-24 hoursB.

T1 sequence (P13569 with tags, fused parts or gaps DEL508-508): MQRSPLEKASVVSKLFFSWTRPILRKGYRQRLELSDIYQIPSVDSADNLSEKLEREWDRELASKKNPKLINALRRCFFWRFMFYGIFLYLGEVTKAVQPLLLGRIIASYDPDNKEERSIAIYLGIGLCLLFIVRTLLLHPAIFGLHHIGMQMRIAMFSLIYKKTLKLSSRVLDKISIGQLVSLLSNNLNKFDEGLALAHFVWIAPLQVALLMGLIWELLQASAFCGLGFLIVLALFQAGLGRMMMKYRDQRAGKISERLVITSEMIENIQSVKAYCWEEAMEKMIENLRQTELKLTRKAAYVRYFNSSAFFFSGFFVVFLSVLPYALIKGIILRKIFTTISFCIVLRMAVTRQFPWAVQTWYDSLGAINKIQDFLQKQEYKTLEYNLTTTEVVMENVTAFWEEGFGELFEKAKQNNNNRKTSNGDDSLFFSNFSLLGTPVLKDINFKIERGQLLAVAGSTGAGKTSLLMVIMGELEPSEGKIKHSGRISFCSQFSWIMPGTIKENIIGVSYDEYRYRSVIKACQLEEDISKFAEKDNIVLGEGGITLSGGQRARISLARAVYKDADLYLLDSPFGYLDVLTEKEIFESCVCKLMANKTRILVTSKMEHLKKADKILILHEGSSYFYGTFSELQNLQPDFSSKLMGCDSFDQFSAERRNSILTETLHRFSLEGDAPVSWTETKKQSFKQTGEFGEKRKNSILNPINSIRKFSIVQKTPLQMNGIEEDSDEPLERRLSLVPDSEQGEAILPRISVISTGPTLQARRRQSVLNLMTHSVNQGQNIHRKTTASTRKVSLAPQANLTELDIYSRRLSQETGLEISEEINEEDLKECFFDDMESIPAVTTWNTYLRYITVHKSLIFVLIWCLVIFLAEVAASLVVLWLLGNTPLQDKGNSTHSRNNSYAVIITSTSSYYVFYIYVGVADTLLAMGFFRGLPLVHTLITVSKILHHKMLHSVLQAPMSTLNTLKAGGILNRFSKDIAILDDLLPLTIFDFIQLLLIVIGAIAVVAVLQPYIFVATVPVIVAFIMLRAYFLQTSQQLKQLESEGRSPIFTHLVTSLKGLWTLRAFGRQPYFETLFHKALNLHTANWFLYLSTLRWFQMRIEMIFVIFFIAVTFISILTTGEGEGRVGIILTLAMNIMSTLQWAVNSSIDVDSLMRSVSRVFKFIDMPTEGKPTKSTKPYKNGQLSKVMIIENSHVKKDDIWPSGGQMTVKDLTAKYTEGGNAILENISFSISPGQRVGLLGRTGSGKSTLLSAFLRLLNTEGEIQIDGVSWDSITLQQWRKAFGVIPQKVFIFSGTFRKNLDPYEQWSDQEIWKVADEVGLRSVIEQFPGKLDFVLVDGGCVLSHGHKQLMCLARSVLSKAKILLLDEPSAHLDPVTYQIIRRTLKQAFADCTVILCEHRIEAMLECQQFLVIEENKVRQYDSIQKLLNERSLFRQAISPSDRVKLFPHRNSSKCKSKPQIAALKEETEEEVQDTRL

With `COc1cccc(-c2cc(C(N)=O)nc(NCC3CCCO3)n2)c1` (stereo not shown) [Compound 80], the Efficacy entry is listed as “+ (+ corresponds to Efficacy less than 50)” and the EC50 was > 5 µM.

Take `CCCCN(CCO)c1nc(C(N)=O)cc(-c2ccccc2)n1` [Compound 19]: the Efficacy result is “++ (++ corresponds to Efficacy between 100 and 50)”; the EC50 is 1 to 5 µM.

As for `CCN(CC)c1nc(C(N)=O)cc(-c2ccc(C)s2)n1` [Compound 21], the Efficacy entry was “+++ (+++ corresponds to Efficacy greater than 100)” and the EC50 fell in the range of 1 to 5 µM.

`NC(=O)c1cc(-c2cccc(F)c2)nc(N2CCCCC2)n1` [Compound 122]: the Efficacy entry is given as “+++ (+++ corresponds to Efficacy greater than 100)” and the EC50 is > 5 µM.

As to `CCN(CC)c1nc(C(=O)N2CCCCC2)cc(-c2ccccc2)n1` [Compound 157], the Efficacy result is listed as “+ (+ corresponds to Efficacy less than 50)” and the EC50 was > 5 µM.

For `CC1CC(C)CN(c2nc(C(N)=O)cc(-c3ccccc3)n2)C1` (stereo not shown) [Compound 113], the Efficacy entry was “++ (++ corresponds to Efficacy between 100 and 50)”; the EC50 was 1 to 5 µM.

Consider `CCCN(CCO)c1nc(C(N)=O)cc(-c2ccccc2)n1` [Compound 100], for which the Efficacy result was “++ (++ corresponds to Efficacy between 100 and 50)”; the EC50 lay within 1 to 5 µM.

Turning to `CCN(CC)c1nc(C(N)=O)cc(-c2ccccc2F)n1` [Compound 94], the Efficacy entry is on record as “+++ (+++ corresponds to Efficacy greater than 100)” and the EC50 was in the range of 1 to 5 µM.

Take `CCN(CC)c1nc(C(N)=O)cc(-c2ccc(S(=O)(=O)CC)cc2)n1` [Compound 155]: the Efficacy entry was “++ (++ corresponds to Efficacy between 100 and 50)”; the EC50 was > 5 µM.

For the compound `CCN(CC)c1nc(C(N)=O)cc(-c2cc(Cl)ccc2OC)n1` [Compound 12], the Efficacy entry was “++ (++ corresponds to Efficacy between 100 and 50)”; the EC50 is < 1 µM.

Regarding `CCOc1cccc(-c2cc(C(N)=O)nc(N3CCCCC3)n2)c1` [Compound 194], the Efficacy result is “+++ (+++ corresponds to Efficacy greater than 100)” and the EC50 fell in the range of 1 to 5 µM.

In the case of `CCNC(=O)c1cc(-c2ccccc2)nc(N(CC)CC)n1` [Compound 91], the Efficacy result is reported as “+++ (+++ corresponds to Efficacy greater than 100)” and the EC50 was 1 to 5 µM.

For `CCN(CC)c1nc(C(N)=O)cc(-c2cccc(NC(C)=O)c2)n1` [Compound 62], the Efficacy entry was “++ (++ corresponds to Efficacy between 100 and 50)”; the EC50 is > 5 µM.

Regarding `COc1cccc(-c2cc(C(N)=O)nc(N3CCOCC3)n2)c1` [Compound 211], the Efficacy entry is “++ (++ corresponds to Efficacy between 100 and 50)”; the EC50 is > 5 µM.

With `CCN(CC)c1nc(C(N)=O)cc(-c2ccc(C)c(C)c2)n1` [Compound 207], the Efficacy entry is on record as “+++ (+++ corresponds to Efficacy greater than 100)” and the EC50 was in the range of 1 to 5 µM.

With `CCCCN(Cc1ccccc1)c1nc(C(N)=O)cc(-c2ccccc2)n1` [Compound 52], the Efficacy result is “++ (++ corresponds to Efficacy between 100 and 50)”; the concentration for a half-maximal effect (EC50) lay within 1 to 5 µM.

Turning to `CCN(CC)c1nc(C(=O)N(C)C)cc(-c2ccccc2)n1` [Compound 117], the Efficacy entry is given as “+++ (+++ corresponds to Efficacy greater than 100)” and the EC50 is > 5 µM.

Consider `CCN(CC)c1nc(C(N)=O)cc(-c2ccc(OC)cc2)n1` [Compound 109], for which the Efficacy entry is listed as “+++ (+++ corresponds to Efficacy greater than 100)” and the EC50 was < 1 µM.

Take `CCCCCCN(C)c1nc(C(N)=O)cc(-c2ccccc2)n1` [Compound 201]: the Efficacy result was “+++ (+++ corresponds to Efficacy greater than 100)” and the EC50 was 1 to 5 µM.

As to `COc1ccc(OC)c(-c2cc(C(N)=O)nc(N3CCCCC3)n2)c1` [Compound 8], the Efficacy entry is “++ (++ corresponds to Efficacy between 100 and 50)”; the EC50 fell in the range of 1 to 5 µM.

For the compound `C#CCNc1nc(C(N)=O)cc(-c2cccc(OC)c2)n1` [Compound 145], the Efficacy entry is “++ (++ corresponds to Efficacy between 100 and 50)”; the EC50 is > 5 µM.

Consider `NC(=O)c1cc(-c2cccc(C(F)(F)F)c2)nc(N2CCCCC2)n1` [Compound 185], for which the Efficacy result is listed as “+ (+ corresponds to Efficacy less than 50)” and the EC50 is > 5 µM.

As to `COc1ccccc1-c1cc(C(N)=O)nc(N(CCO)CCO)n1` [Compound 90], the Efficacy result was “+ (+ corresponds to Efficacy less than 50)” and the EC50 is > 5 µM.

With `CCCN(CC1CC1)c1nc(C(N)=O)cc(-c2cccc(OC)c2)n1` [Compound 89], the Efficacy entry is on record as “+++ (+++ corresponds to Efficacy greater than 100)” and the EC50 fell in the range of 1 to 5 µM.

For the compound `CCN(CC)c1nc(C(N)=O)cc(-c2ccc(OC)cc2OC)n1` [Compound 172], the Efficacy result is “+++ (+++ corresponds to Efficacy greater than 100)” and the EC50 lay in the range of 1 to 5 µM.

Take `CCN(CCO)c1nc(C(N)=O)cc(-c2ccccc2)n1` [Compound 4]: the Efficacy entry was “+++ (+++ corresponds to Efficacy greater than 100)” and the EC50 is > 5 µM.

With `NC(=O)c1cc(-c2ccccc2)nc(N2CCC3CCCCC3C2)n1` (stereo not shown) [Compound 148], the Efficacy entry is “++ (++ corresponds to Efficacy between 100 and 50)”; the EC50 was 1 to 5 µM.

With `NC(=O)c1cc(-c2ccccc2)nc(N2CCSCC2)n1` [Compound 33], the Efficacy result was “+++ (+++ corresponds to Efficacy greater than 100)” and the concentration giving a half-maximal response (EC50) lay in the range of 1 to 5 µM.

Take `COc1cccc(-c2cc(C(N)=O)nc(N)n2)c1` [Compound 191]: the Efficacy entry was “+ (+ corresponds to Efficacy less than 50)” and the EC50 is > 5 µM.

As for `CCOCCN(CCOCC)c1nc(C(N)=O)cc(-c2ccccc2)n1` [Compound 190], the Efficacy result is “++ (++ corresponds to Efficacy between 100 and 50)”; the EC50 is < 1 µM.

As to `NC(=O)c1cc(-c2ccccc2)nc(NC2CCCC2)n1` [Compound 112], the Efficacy entry is reported as “+ (+ corresponds to Efficacy less than 50)” and the EC50 was > 5 µM.

With `CCN(CC)c1nc(C(N)=O)cc(-c2cccc(Cl)c2Cl)n1` [Compound 210], the Efficacy result is “++ (++ corresponds to Efficacy between 100 and 50)”; the EC50 is < 1 µM.

`CCN(CC)c1nc(C(N)=O)cc(-c2c(OC)cccc2OC)n1` [Compound 108]: the Efficacy entry is “++ (++ corresponds to Efficacy between 100 and 50)”; the EC50 is > 5 µM.

Take `CC1CCCN(c2nc(C(N)=O)cc(-c3ccccc3)n2)C1` (stereo not shown) [Compound 149]: the Efficacy entry is “++ (++ corresponds to Efficacy between 100 and 50)”; the EC50 was > 5 µM.

On to `CCN(CC)c1nc(C(N)=O)cc(-c2cccc(Cl)c2)n1` [Compound 98], for which the Efficacy entry is reported as “+++ (+++ corresponds to Efficacy greater than 100)” and the EC50 is < 1 µM.

For the compound `CCNc1nc(C(N)=O)cc(-c2cccc(OC)c2)n1` [Compound 138], the Efficacy result was “++ (++ corresponds to Efficacy between 100 and 50)”; the EC50 is > 5 µM.

As for `NC(=O)c1cc(-c2ccccc2)nc(N2CCCC2)n1` [Compound 26], the Efficacy result is “++ (++ corresponds to Efficacy between 100 and 50)”; the EC50 lay in the range of 1 to 5 µM.

In the case of `CCCN(CCC)c1nc(C(N)=O)cc(-c2ccccc2)n1` [Compound 23], the Efficacy result is “++ (++ corresponds to Efficacy between 100 and 50)”; the EC50 was 1 to 5 µM.
